Measurements taken from patent publication US9880171B2, “iASPP phosphorylation and metastatic potential” (LUDWIG INSTITUTE FOR CANCER RESEARCH LTD., priority 2012, dated 2018).

Key:
Type in all cases: cell-based, human
[1] = system: slow-migrating iASPP in H1299 cells; test: induction of slow-migrating iASPP by chemotherapeutic agents in H1299 cells (WB); settings: H1299, overnight treatment (oxidative stress inducers 1-3 h; EDTA 4 mM 1 hour), antibody LX49.3
Method: FIG. 3. […] H1299 cells were treated overnight with the indicated concentrations of mitosis-arrest drugs nocodazole, colchicine and taxol, DNA damaging drugs, or oxidative stress inducers (1-3 h). Total lysate was prepared in UREA buffer, and iASPP expression patterns were determined using antibody LX49.3. […] Mitotic-arrest drugs were applied to H1299 cells to induce iASPP mobility shift. Floating and adherent cells were collected, and iASPP expression pattern was determined by western blotting (WB). C. […] Left panel, cells in mitosis (floating) and interphase (adherent) were collected by mitotic shake-off, and iASPP expression pattern was determined by WB. Right panel, H1299 cells after Taxol treatment, or mitotic shake-off were immunofluorescence stained using antibody LX49.3. In mitotic shake-off experiment, mitotic shake-off cells were cytospun to slides; the remaining adherent cells after shaking were scraped off and used as interphase control. […] Melanoma cells were treated with nocodazole overnight and iASPP expression patterns from total cell lysate was determined by WB.
FIG. 4. A. Floating and adherent H1299 cells separately collected by mitotic shake-off (FIG. 3C) were stained with propidium iodide (PI), followed by FACS analysis. […] B. H1299 cells were subjected to treatment of 10 μM nocodazole for 24 hours (Nocodazole), on ice for 30 minutes (Cold shock), or 4 mM EDTA for 1 hour (EDTA). Left panel: iASPP expression pattern was analysed by immunoblotting. Right panel: phase contrast images were taken before collection of the cells for WB analysis. Bar=20 μm.
(§1) For WB, cells were lysed in buffer containing 8 M urea, 1 M thiourea, 0.5% CHAPS, 50 mM DTT, and 24 mM spermine. A total of 40 μg of protein extract was loaded per lane into SDS-polyacrylamide gels. Gels were transferred onto nitrocellulose membrane (Protran) and the resulting blots incubated first with primary antibody overnight at 4° C. and then with the appropriate secondary horseradish peroxidize-conjugated antibody (Dako). The results were visualized by enhanced chemiluminescent detection (Amersham Biosciences) using X-ray film (Fujifilm). For cell lysate immunoprecipitation, cells were dissolved in NP40 buffer (50 mM Tris-HCl pH 8.0, 150 mM NaCl, 1% NP-40) with protease inhibitor cocktail mix (Roche Diagnostics). Cells were further thoroughly broken by ultrasonication, followed by spinning for 1 hour. Achieved suspension was adjusted to 1-2 mg/ml using NP40 buffer and incubated with 20 μl nickel beads, glutathione beads, or protein A beads (with 2 μg required antibody) for 2 h at room temperature. The beads were washed for four times with NP40 buffer, boiled for 5 min in Laemmli sample buffer, and applied for Western blotting. For pure protein immunoprecipitation, 5-10 μg purified proteins were mixed in NP40 buffer with 1 mg/ml BSA for 2 h at room temperature.
As mitotic cells often detach from the tissue culture dish, floating cells were separated from adherent cells after the treatment of Nocodozole, Taxol and Colchicine.

[2] = system: iASPP modification and p53-iASPP binding in WM278 cells; test: iASPP modification and p53 co-immunoprecipitation in WM278 cells; settings: 0.4 μM JNJ or 10 μM nocodazole overnight
Method: as §1

[3] = system: slow-migrating iASPP in melanoma cell lines; test: induction of slow-migrating iASPP in melanoma cell lines (WB); settings: panel of melanoma cell lines, nocodazole overnight
Method: FIG. 3. Mitotic arrests induces slow-migrating nuclear iASPP. A. Mitosis-arresting (i.e., apoptosis-inducing) chemotherapeutic drugs induce slow-migrating iASPP. H1299 cells were treated overnight with the indicated concentrations of mitosis-arrest drugs nocodazole, colchicine and taxol, DNA damaging drugs, or oxidative stress inducers (1-3 h). Total lysate was prepared in UREA buffer, and iASPP expression patterns were determined using antibody LX49.3. B. Slow-migrating iASPP exclusively exists in mitotic cells after drug induction. Mitotic-arrest drugs were applied to H1299 cells to induce iASPP mobility shift. Floating and adherent cells were collected, and iASPP expression pattern was determined by western blotting (WB). C. Slow-migrating iASPP exists in natural mitotic cells and localized in nucleus (as determining by staining with the nuclear specific marker Topro). Left panel, cells in mitosis (floating) and interphase (adherent) were collected by mitotic shake-off, and iASPP expression pattern was determined by WB. Right panel, H1299 cells after Taxol treatment, or mitotic shake-off were immunofluorescence stained using antibody LX49.3. […] Melanoma cells were treated with nocodazole overnight and iASPP expression patterns from total cell lysate was determined by WB. […]

For `COC(=O)Nc1nc2ccc(C(=O)c3cccs3)cc2[nH]1` [Nocodazole], the “induction of slow-migrating iASPP isoform” value [1] was “induced”, the “amount of modified iASPP” value [2] was “induced iASPP modification” and the “induction of slow-migrating iASPP isoform” value [3] was “induced the conversion of faster migrating iASPP into the slower migrating iASPP isoform”.
